These results are taken from patent publication US20100197800A1, “Treatment and/or Prevention of Presbycusis by Modulation of Metabotropic Glutamate Receptor 7” (priority 2007, published 2010).

As usually defined, the EC50 is the concentration at which the effect is half-maximal.

The target of series [1] is mGluR6 (Homo sapiens, UniProt O15303). The settings on record: antagonist; read-out: 1050 values on inhibition of glutamate stimulated inositol phosphate accumulation, mGluR6; cited from earlier work.
Sequence of mGluR6 (O15303 25-877): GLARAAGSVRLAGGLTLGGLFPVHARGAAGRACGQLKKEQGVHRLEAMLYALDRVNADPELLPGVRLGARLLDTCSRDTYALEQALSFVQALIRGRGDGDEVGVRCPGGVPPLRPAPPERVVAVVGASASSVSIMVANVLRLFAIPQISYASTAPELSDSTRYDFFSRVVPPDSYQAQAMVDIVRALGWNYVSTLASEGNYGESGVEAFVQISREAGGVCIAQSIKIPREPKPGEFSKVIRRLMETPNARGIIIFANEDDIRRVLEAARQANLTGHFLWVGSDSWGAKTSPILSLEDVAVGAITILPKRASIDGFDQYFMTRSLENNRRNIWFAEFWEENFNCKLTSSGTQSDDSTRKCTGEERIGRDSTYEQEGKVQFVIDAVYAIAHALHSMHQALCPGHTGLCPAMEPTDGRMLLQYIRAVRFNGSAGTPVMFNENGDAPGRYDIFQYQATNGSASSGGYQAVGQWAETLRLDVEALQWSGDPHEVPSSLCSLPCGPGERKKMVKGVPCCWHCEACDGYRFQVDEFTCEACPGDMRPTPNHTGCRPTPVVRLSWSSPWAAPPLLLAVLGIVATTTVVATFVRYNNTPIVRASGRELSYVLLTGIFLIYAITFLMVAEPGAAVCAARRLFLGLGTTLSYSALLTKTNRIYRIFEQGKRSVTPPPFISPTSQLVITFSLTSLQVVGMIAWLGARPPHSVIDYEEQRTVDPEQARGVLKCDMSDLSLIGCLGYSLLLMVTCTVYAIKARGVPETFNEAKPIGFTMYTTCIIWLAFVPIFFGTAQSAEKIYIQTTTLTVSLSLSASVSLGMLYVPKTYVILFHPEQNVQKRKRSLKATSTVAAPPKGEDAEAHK
Series [2] addresses T1, mGluR7 (Homo sapiens, UniProt Q14831). The conditions noted are these: antagonist; read-out: 1050 values on inhibition of glutamate stimulated inositol phosphate accumulation, mGluR7; cited from earlier work.
The target in series [3] is T2, mGluR8 (Homo sapiens, UniProt O00222). The conditions noted are these: antagonist; read-out: 1050 values on inhibition of glutamate stimulated inositol phosphate accumulation, mGluR8; cited from earlier work.
T2 sequence (O00222 34-908, species assumed): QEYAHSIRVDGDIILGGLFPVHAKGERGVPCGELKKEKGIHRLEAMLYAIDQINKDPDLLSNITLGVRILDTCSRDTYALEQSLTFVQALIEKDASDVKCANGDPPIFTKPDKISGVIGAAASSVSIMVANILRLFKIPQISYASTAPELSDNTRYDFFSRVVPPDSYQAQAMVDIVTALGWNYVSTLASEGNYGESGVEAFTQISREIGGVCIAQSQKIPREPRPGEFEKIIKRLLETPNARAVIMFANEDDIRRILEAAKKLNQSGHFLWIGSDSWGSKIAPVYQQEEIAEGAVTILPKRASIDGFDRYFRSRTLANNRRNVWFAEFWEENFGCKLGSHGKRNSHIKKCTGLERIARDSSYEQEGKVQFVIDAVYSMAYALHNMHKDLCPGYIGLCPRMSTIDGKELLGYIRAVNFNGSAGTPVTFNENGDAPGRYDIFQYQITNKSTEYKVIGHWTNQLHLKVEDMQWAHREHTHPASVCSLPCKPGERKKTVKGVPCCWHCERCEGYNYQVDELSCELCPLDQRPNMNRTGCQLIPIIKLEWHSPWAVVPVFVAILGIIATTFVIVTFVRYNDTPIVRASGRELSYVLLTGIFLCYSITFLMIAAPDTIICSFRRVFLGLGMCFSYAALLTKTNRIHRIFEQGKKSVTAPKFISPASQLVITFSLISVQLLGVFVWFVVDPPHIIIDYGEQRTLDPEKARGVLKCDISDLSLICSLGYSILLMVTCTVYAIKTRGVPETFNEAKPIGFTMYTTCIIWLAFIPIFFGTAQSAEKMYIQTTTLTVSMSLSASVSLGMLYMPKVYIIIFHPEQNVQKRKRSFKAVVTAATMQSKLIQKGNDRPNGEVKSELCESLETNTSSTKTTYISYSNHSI
The target of series [4] is T3, rat mGluR7 (Rattus norvegicus, UniProt P35400).
T3 construct: host or cells: CHO cells, transfected
T3 sequence (P35400 35-915): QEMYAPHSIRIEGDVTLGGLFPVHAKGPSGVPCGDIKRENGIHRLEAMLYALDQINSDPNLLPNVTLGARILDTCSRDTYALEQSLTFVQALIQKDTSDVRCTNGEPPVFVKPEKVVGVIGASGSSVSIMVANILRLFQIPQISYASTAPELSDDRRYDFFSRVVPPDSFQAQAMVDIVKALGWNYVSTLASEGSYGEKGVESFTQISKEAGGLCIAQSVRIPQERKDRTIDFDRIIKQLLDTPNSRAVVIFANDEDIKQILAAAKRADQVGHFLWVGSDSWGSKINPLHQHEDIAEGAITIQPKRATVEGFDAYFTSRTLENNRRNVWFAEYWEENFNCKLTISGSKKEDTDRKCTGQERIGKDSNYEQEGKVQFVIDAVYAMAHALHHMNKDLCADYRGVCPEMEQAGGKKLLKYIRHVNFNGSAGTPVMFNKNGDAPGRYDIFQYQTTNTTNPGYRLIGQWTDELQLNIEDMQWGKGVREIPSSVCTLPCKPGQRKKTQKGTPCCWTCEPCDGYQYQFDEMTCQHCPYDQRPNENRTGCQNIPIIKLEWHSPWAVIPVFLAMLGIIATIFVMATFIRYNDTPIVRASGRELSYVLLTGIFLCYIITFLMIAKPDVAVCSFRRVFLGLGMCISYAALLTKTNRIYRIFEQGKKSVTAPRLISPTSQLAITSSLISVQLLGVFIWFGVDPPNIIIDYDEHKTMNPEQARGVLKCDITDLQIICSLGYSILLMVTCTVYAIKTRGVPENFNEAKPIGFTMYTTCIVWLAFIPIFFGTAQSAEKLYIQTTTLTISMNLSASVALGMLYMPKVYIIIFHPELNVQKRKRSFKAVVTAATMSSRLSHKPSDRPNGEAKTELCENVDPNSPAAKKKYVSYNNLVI
The conditions noted are these: cited from earlier work.

Series [5] deals with T3, rat mGluR7. The conditions noted are these: CHO cells expressing rat mGluR7; read-out: IC50, inhibition of L-AP4-induced inhibition of forskolin-stimulated cAMP accumulation; cited from earlier work. For orientation: cAMP levels reflect the balance of adenylyl cyclase and phosphodiesterase activity.
Series [6] concerns the target T1, mGluR7. The settings on record: cited from earlier work.
For series [7], the target named is T1, mGluR7. The settings on record: cited from earlier work. This is another data set of the same source.
Series [8] has as its target mGluR1 (Homo sapiens, UniProt Q13255). The settings on record: concentrations of at least 1 μM; cited from earlier work.
The target of series [9] is mGluR2 (Homo sapiens, UniProt Q14416). The conditions noted are these: concentrations of at least 1 μM; cited from earlier work.
Series [10] addresses mGluR3 (Homo sapiens, UniProt Q14832). The conditions noted are these: concentrations of at least 1 μM; cited from earlier work.
Series [11] has as its target mGluR4 (Homo sapiens, UniProt Q14833). The conditions noted are these: concentrations of at least 1 μM; cited from earlier work.
In series [12] the target is mGluR5 (Homo sapiens, UniProt P41594). The conditions noted are these: concentrations of at least 1 μM; cited from earlier work.
In series [13] the target is T2, mGluR8. The settings on record: concentrations of at least 1 μM; cited from earlier work.
In series [14] the target is T1, mGluR7. Further details: host or cells: CHO cells, transfected. The settings on record: CHO cells coexpressing human mGluR7 with G15; cited from earlier work.
In series [15] the target is T1, mGluR7. Details: host or cells: CHO cells (printed only for the inverse-agonism experiment, A12). The conditions noted are these: CHO cells expressing mGluR7; cited from earlier work.
Series [16] relates to presbycusis. Nature of the series: treatment of patients with presbycusis, hearing threshold. The series is classed as in vivo, human. The conditions noted are these: for hearing threshold left ear / hearing threshold right ear: after 14 days. As for the experimental part:
A person presents with symptoms of presbycusis, including moderate loss of higher frequency (above 2000 Hz) hearing (50 decibel threshold) in both ears. The person is administered two drops per ear twice daily of a topical otic formulation comprising 10 ug/ml of AMN082 in a phosphate-buffered saline and further comprising 0.25% the carboxyvinyl water swellable gelling agent, Carbopol 934P; i.e., about 1 ug nGluR7 agonist per ear per dosing. After 14 days, the patient is tested by an audiologist. The threshold is lowered to 35 decibels right ear and 40 decibels left ear.
A person presents with symptoms of presbycusis, including loss of moderately high frequency (above 1000 Hz) hearing (40 decibel threshold right ear and 35 decibel threshold left ear). The person is administered an oral formulation 4 times per day comprising 2 ug per dose of AMN082. The extended release capsule comprises a matrix of 10% by weight hydroxypropyl methylcellulose (e.g., Methocel®; Dow Chemical Company, U.S.A), and 50% by weight of a cornstarch filler. After 14 days, the threshold is lowered to 35 decibels right ear and 25 decibels left ear.
A person presents with symptoms of presbycusis, including loss of hearing in the 500 to above 2000 Hz range. The person is implanted with an Alset® osmotic pump adapted for cochlear delivery; see e.g., Richardson, R. T., Noushi, F., O'Leary, S. Inner ear therapy for neural preservation. AUDIOLOGY AND NEURO-OTOLOGY 2006; 11(6): 343-356. The pump is supplied with an aqueous sterile solution comprising AMN082. The pump delivers a dose of 10 ug/hour of the mGluR7 modulator. After 10 days, hearing is improved in both ears.

The target in series [17] is T1, mGluR7. The conditions noted are these: through an allosteric site; cited from earlier work.
For series [18], the target named is T4, mGluR7 (Mus musculus, UniProt Q68ED2).
T4 construct: host or cells: whole animals (in vivo), endogenous receptor
T4 sequence (Q68ED2 35-915): as the sequence (P35400 35-915) above, with H420N, S486P counted along it
The conditions noted are these: cited from earlier work.

Series [19] addresses human mGluR7b (Homo sapiens, UniProt Q14831). The settings on record: agonist; cited from earlier work.
Series [20] deals with mGluR4a (Homo sapiens, UniProt Q14833). The conditions noted are these: agonist; cited from earlier work.
Sequence of mGluR4a (Q14833 33-912): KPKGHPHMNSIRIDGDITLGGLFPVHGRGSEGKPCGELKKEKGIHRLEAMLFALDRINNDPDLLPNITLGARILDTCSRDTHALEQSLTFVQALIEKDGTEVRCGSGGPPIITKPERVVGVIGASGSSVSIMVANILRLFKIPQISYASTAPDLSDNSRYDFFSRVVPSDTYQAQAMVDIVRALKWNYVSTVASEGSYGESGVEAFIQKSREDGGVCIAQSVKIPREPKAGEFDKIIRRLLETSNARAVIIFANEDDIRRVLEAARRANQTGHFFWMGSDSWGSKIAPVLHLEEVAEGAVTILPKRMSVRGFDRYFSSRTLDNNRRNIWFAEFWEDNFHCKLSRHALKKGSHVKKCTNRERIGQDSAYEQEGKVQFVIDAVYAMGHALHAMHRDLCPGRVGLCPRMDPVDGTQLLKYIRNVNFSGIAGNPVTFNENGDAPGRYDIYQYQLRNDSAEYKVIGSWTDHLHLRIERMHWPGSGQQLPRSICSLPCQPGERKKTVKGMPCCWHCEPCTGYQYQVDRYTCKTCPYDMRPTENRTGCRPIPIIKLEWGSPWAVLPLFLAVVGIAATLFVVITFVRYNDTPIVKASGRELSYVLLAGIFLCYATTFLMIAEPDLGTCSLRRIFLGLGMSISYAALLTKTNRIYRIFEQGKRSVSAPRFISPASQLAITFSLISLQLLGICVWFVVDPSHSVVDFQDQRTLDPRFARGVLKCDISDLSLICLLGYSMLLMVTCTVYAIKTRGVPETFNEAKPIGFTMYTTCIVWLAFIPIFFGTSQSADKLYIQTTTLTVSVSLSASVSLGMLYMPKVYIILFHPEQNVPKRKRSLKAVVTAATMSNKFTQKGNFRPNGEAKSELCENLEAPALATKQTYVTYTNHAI
Series [21] addresses T1, mGluR7. The settings on record: higher for mGluR7; cited from earlier work.
The mark [22] stands for this setting: Example 3: person, topical otic drops twice daily, baseline 50 decibel, above 2000 Hz.

Where two headings read alike, the source gives them in different places.

T1 sequence (Q14831 35-915): as the sequence (P35400 35-915) above, with H420N, T454S, S486A, N544D counted along it
Sequence of mGluR4 (Q14833 33-912): as the sequence (Q14833 33-912) above
Sequence of mGluR3 (Q14832 23-879): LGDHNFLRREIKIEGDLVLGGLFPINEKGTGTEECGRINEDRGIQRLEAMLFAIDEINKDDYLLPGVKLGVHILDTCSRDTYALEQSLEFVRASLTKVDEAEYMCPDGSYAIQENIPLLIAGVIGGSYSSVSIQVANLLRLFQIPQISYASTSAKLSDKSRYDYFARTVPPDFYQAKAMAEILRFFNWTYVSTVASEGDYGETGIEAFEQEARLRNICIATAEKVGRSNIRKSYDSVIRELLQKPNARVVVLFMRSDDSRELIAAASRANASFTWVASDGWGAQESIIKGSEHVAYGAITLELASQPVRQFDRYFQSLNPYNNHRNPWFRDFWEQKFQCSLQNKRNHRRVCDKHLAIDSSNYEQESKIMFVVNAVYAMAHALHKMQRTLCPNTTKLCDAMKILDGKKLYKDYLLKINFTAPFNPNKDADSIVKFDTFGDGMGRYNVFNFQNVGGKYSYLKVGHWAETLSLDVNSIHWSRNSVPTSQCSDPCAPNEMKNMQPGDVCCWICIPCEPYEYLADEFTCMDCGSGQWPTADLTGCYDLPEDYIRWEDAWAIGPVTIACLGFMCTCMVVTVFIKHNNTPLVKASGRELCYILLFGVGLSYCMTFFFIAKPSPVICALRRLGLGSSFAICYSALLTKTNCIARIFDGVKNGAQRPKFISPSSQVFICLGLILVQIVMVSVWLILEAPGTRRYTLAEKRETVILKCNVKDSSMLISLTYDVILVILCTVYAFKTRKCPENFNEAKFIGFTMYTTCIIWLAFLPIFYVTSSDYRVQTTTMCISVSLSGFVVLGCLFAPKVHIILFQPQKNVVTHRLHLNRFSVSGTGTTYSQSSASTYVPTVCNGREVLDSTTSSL

Regarding `N[C@H](C(=O)O)C1[C@H](C(=O)O)[C@H]1C(=O)O` (stereo partly drawn) [DCG-IV, (2S,1'S,2'S)-2-(dicarboxycyclopropyl)glycine], the IC50 is 39.6 µM in series [1], 40.1 µM in series [2] and 32 µM in series [3].

As to `COc1ccc(-c2cc3onc(-c4ccncc4)c3c(=O)n2C)cc1` [MMPIP, 6-(4-methoxyphenyl)-5-methyl-3-pyridin-4-ylisoxazolo[4,5-c]pyridin-4(5H)-one], in series [4], the “maximal response in agonist concentration-response curves in the presence of the compound” value was “reduced” and the reversibility of antagonism result is “reversible”. The IC50 in [5] is 220 nM. Besides, in series [6], the “displacement of [3H]LY341495 bound to mGluR7” value is recorded as “did not displace”. Also, in [7], the “antagonism of AMN082-induced inhibition of cAMP accumulation” value is listed as “able to antagonize”. The “effect on mGluR1” value in [8] is on record as “no significant effect”. Further, in series [9], the “effect on mGluR2” value was “no significant effect”. Moreover, the “effect on mGluR3” value in series [10] was “no significant effect”. The “effect on mGluR4” value in series [11] is listed as “no significant effect”. The “effect on mGluR5” value in series [12] is on record as “no significant effect”. Further, the “effect on mGluR8” value in [13] is recorded as “no significant effect”. Also, the “inhibition of the L-AP4-induced cAMP response” value in series [14] is “inhibited”. For the same compound, in series [15], the “forskolin-stimulated cAMP levels in the absence of agonists (inverse agonistic activity)” value was “further increase”.

Turning to `Cl.Cl.c1ccc(C(NCCNC(c2ccccc2)c2ccccc2)c2ccccc2)cc1` [AMN082, N,N′-dibenzhydryl-ethane-1,2-diamine dihydrochloride], the “hearing threshold left ear” value in series [16] (setting [22]) was determined as 40 decibels; in series [16] (Example 4: person, oral 2 ug 4 times per day, baseline 35 decibel, above 1000 Hz), 25 decibels. In addition, the “hearing threshold right ear” value in series [16] (setting [22]) turned out to be 35 decibels; in series [16] (Example 4: person, oral 2 ug 4 times per day, baseline 40 decibel, above 1000 Hz), 35 decibels. Further, the “hearing in both ears” value in series [16] (Example 5: person, cochlear osmotic pump 10 ug/hour, after 10 days) is on record as “improved”. For the same compound, the “activation of mGluR7” value in [17] was “fully activating”. For the same compound, the oral activity result in [18] (in vivo, po) is given as “orally active”. Further, the blood-brain barrier penetration result in [18] (in vivo) is reported as “penetrate the blood-brain barrier”. For the same compound, in series [18] (mGluR7 knockout animals), the “increase in stress hormone levels in mGluR7 knockout animals” value was “absent”. The stress hormone levels entry in [18] (wild-type animals) is “robust increase”.

`N[C@@H](C(=O)O)c1ccc(P(=O)(O)O)cc1` (racemic) [(+)-PPG, (R,S)-phosphonophenylglycine]: the values for the EC50 in series [19] and in [20] were 48 µM and 3.2 µM, respectively.

With `N[C@@H](CCP(=O)(O)O)C(=O)O` [L-AP4, L-(+)-2-amino-4-phosphonobutyric acid], in series [21], the “concentrations activating mGluR7 relative to those activating mGluRs 4, 6, and 8” value is on record as 2-3 orders of magnitude.

For “5-Methyl-3,6-diphenylisoxazolo[4,5-e]pyridin-4(5H)-one [MDIP]”, the IC50 in series [4] (CHO cells coexpressing rat mGluR7 with G15, read-out: IC50, inhibition of L-AP4-induced intracellular Ca2+ mobilization) is 20 nM; in [5], 99 nM. Further, the “inhibition of the L-AP4-induced cAMP response” value in series [14] is listed as “inhibited”.
